Test [1] deals with T1, Aminopeptidase N (Sus scrofa, UniProt P15145).
T1 sequence (P15145 whole entry): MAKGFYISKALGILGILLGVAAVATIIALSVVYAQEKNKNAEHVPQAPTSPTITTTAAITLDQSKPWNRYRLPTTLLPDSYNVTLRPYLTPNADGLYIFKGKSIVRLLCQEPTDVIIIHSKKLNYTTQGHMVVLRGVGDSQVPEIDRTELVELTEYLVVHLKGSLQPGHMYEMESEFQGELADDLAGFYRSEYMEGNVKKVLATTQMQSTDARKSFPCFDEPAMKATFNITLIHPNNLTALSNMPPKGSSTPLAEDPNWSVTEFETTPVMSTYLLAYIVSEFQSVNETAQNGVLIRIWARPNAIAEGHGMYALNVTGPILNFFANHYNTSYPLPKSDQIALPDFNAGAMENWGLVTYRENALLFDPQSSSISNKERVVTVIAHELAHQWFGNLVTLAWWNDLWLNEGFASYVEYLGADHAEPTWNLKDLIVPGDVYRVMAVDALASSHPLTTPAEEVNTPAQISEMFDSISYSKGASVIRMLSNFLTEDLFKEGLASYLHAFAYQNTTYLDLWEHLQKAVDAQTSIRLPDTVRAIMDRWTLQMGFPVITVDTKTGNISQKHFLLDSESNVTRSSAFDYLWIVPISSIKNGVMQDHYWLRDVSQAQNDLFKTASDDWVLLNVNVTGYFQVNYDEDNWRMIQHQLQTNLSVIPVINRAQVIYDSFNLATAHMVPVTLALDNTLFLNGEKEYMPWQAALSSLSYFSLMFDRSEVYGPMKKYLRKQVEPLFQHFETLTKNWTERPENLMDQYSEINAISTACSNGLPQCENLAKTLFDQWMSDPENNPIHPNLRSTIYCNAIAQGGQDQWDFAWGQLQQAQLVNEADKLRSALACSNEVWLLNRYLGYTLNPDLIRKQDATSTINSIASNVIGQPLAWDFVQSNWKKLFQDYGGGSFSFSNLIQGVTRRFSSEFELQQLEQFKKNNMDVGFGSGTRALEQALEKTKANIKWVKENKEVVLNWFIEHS
Put plainly: Inhibition of pig kidney microsome aminopeptidase N by UV-visible spectrophotometer.

For test [2], the target named is 72 kDa type IV collagenase (Homo sapiens, UniProt P08253). Put plainly: Inhibition of MMP2.
Test [3] concerns HL-60. Put plainly: Antiproliferative activity against human HL-60 cells after 48 hrs by MTT assay. It counts as functional, cell-based. The conditions noted are these: HL-60, 48 h.

In ChEMBL document CHEMBL1151707, “Novel 3-phenylpropane-1,2-diamine derivates as inhibitors of aminopeptidase N (APN)” (Bioorg Med Chem, 2008) one finds IC50 data, which are given here for 21 molecules.

72 kDa type IV collagenase, sequence (P08253 whole entry): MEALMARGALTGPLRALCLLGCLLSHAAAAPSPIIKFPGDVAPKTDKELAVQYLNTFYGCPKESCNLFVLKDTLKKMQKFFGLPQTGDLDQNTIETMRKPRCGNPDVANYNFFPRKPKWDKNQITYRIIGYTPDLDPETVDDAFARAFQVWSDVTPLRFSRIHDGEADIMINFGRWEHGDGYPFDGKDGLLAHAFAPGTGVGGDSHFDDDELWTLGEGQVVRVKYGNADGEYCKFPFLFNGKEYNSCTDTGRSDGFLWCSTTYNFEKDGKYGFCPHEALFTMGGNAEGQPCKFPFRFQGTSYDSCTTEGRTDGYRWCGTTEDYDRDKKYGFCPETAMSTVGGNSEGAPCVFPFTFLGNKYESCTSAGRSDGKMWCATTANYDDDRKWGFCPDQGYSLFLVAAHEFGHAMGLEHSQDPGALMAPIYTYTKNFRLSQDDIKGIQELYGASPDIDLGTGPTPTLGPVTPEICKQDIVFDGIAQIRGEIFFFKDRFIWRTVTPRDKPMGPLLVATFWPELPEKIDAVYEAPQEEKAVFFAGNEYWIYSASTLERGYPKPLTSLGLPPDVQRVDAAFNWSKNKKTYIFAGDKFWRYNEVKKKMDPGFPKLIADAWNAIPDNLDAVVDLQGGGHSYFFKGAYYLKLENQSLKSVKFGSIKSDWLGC

In the case of `NCCC(=O)NC[C@H](N)Cc1ccccc1`, the figures for the IC50 in test [1] and in test [2] were 409 µM and 11.2 µM, respectively.

Turning to `N[C@@H](CNC(=O)/C=C/c1ccc(O)c(O)c1)Cc1ccccc1`, the IC50 was determined as 492 µM in test [1] and 329 µM in test [2].

As for `NCCCCCC(=O)NC[C@H](N)Cc1ccccc1`, the IC50 in test [1] was 164 µM; in test [2] it was 99.7 µM.

On to `N[C@@H](CNC(=O)Cc1ccccc1Nc1c(Cl)cccc1Cl)Cc1ccccc1`, for which the IC50 in test [1] and in test [2] was above 1000 µM in each case.

Regarding `N[C@@H](CNC(=O)/C=C/c1ccccc1)Cc1ccccc1`, the IC50 in test [1] amounted to 596 µM; in test [2], 211 µM.

With `CC(C)[C@H](N)C(=O)NC[C@H](N)Cc1ccccc1`, the figures for the IC50 in test [1] and in test [2] were 476 µM and 151 µM, respectively.

For `N[C@@H](CNC(=O)[C@H](Cc1ccccc1)NC(=O)[C@@H](N)Cc1ccccc1)Cc1ccccc1`, the values for the IC50 in test [1], in test [2] and in test [3] were 15.5 µM, 183 µM and 630 µM, respectively.

Regarding `N[C@@H](CNC(=O)c1cc([N+](=O)[O-])cc([N+](=O)[O-])c1)Cc1ccccc1`, the IC50 in test [1] amounted to 204 µM; in test [2], 101 µM.

On to `NCCCC[C@H](N)C(=O)NC[C@H](N)Cc1ccccc1`, for which the IC50 is 164 µM in test [1] and 99.7 µM in test [2].

Consider `CSCC[C@H](N)C(=O)NC[C@H](N)Cc1ccccc1`, for which the IC50 in test [1] turned out to be 119 µM; in test [2] it was 112 µM.

For the molecule `NCCC[C@H](N)C(=O)NC[C@H](N)Cc1ccccc1`, the values for the IC50 in test [1] and in test [2] were 50.5 µM and 219 µM, respectively.

Regarding `C[C@H](N)C(=O)NC[C@H](N)Cc1ccccc1`, the IC50 was above 1000 µM in test [1] and 772 µM in test [2].

Turning to `NC(=O)CC[C@H](N)C(=O)NC[C@H](N)Cc1ccccc1`, the IC50 in test [1] is above 1000 µM; in test [2], 802 µM.

As for `N[C@@H](CNC(=O)[C@@H](N)CS)Cc1ccccc1`, the IC50 in test [1] is 21.1 µM; in test [2], 78.8 µM; in test [3], 1090 µM.

For `N[C@@H](CNC(=O)[C@@H](N)CO)Cc1ccccc1`, the IC50 came out at 33.7 µM in test [1] and 202 µM in test [2].

With `N[C@@H](CNC(=O)CCc1ccccc1)Cc1ccccc1`, the IC50 in test [1] was found to be 290 µM; in test [2], 547 µM.

In the case of `N[C@@H](CNC(=O)CCCc1ccccc1)Cc1ccccc1`, the IC50 in test [1] is above 1000 µM; in test [2], 221 µM.

With `NCC(=O)NC[C@H](N)Cc1ccccc1`, the 50% inhibitory concentration (IC50) is above 1000 µM in test [1] and 23.5 µM in test [2].

For `CC(C)C[C@H](N)C(=O)NC[C@H](N)Cc1ccccc1`, the IC50 in test [1] came out at 142 µM; in test [2] it was 170 µM.

On to `N[C@@H](CNC(=O)Cc1ccccc1)Cc1ccccc1`, for which the IC50 in test [1] was above 1000 µM; in test [2], 632 µM.

`CC(C)C[C@H](NC(=O)[C@@H](O)[C@H](N)Cc1ccccc1)C(=O)O` [UBENIMEX] came in with an IC50 in test [2] of 162 µM.
